The nature of the assay: Antiproliferative activity against mouse +SA mammary epithelial cells after 4 days by MTT assay. To be noted: Epithelial cell, 96 h. The assay is classed as functional, cell-based. (In general: Tetrazolium assays rely on reduction of a dye to a coloured formazan, in cell work by metabolically active cells.)

Structures are written as SMILES.

As to `C=C(C)[C@@H]1CC[C@]2(CO)CC[C@]3(C)[C@H](CC[C@@H]4[C@@]5(C)CC[C@H](O)C(C)(C)[C@@H]5CC[C@]43C)[C@@H]12` [BETULIN], the IC50 (in general, the concentration that gives 50% inhibition) is greater than 20 µM.
As to `C=C(C)[C@@H]1CC[C@]2(C(=O)O)CC[C@]3(C)[C@H](CC[C@@H]4[C@@]5(C)CC[C@H](O)C(C)(C)[C@@H]5CC[C@]43C)[C@@H]12` [BETULINIC ACID], the half-maximal inhibitory concentration (IC50) is greater than 20 µM.
`C=C(C)[C@@H]1CC[C@]2(O)CC[C@]3(C)[C@H](CC[C@@H]4[C@@]5(C)CC[C@H](O)C(C)(C)[C@@H]5CC[C@]43C)[C@@H]12` gave an IC50 of 18.7 µM.
`C[C@H]1[C@H](C)CC[C@]2(C(=O)O)CC[C@]3(C)C(=CC[C@@H]4[C@@]5(C)CC[C@H](O)C(C)(C)[C@@H]5CC[C@]43C)[C@H]12` [URSOLIC ACID] returned a half-maximal inhibitory concentration (IC50) greater than 20 µM.
For `CC(=O)[C@@H]1CC[C@]2(C(=O)O)CC[C@]3(C)[C@H](CC[C@@H]4[C@@]5(C)CC[C@H](O)C(C)(C)[C@@H]5CC[C@]43C)[C@@H]12` [PLATANIC ACID], the IC50 is greater than 20 µM.
`C=C(C)[C@@H]1CC[C@]2(C=O)CC[C@]3(C)[C@H](CC[C@@H]4[C@@]5(C)CC[C@H](O)C(C)(C)[C@@H]5CC[C@]43C)[C@@H]12` [BETULINALDEHYDE]: 19.4 µM corresponded to half-maximal inhibition (IC50).
For the compound `C[C@H]1CO[C@]23CC[C@@H]1[C@@H]2[C@H]1CC[C@@H]2[C@@]4(C)CC[C@H](O)C(C)(C)[C@@H]4CC[C@@]2(C)[C@]1(C)CC3`, the 50% inhibitory concentration (IC50) worked out at 18.1 µM.
The figure for `C=C(C)[C@@H]1CC[C@@]2(OO)CC[C@]3(C)[C@H](CC[C@@H]4[C@@]5(C)CC[C@H](O)C(C)(C)[C@@H]5CC[C@]43C)[C@@H]12` is greater than 20 µM; for `C[C@H]1[C@H](C)CC[C@]2(C(=O)O)CC[C@]3(C)C(=CC[C@@H]4[C@@]5(C)C[C@@H](O)[C@H](O)[C@@](C)(CO)[C@@H]5CC[C@]43C)[C@H]12` [ASIATIC ACID] it is greater than 20 µM; for `C=C(C)[C@@H]1CC[C@]2(OO)CC[C@]3(C)[C@H](CC[C@@H]4[C@@]5(C)CC[C@H](O)C(C)(C)[C@@H]5CC[C@]43C)[C@@H]12` it is 15.5 µM.

(Values after ChEMBL document CHEMBL1140180, “Antiproliferative triterpenes from Melaleuca ericifolia” (J Nat Prod, 2008).)
